How the values were obtained:
[1] = target: T1, cRABP (cellular Retinoic Acid-Binding Protein) (Rattus norvegicus, UniProt P62966); experiment: Saturation test: fixation of ligand on soluble cRABP of rat testicle homogenate; parameters: a homogenate of rat testicles (organ rich in cRABP); from tissue; host or cells: rat testicles (homogenate), inferred from the saturation test; details: for nonspecific fixation (% of the total fixation): in the presence of a large excess (1 μM) of retinoic acid, ligand up to 50 nM
Protocol: The total fixation (nonspecific +specific) (curva a), is obtained by incubation of increasing concentrations (up to a maximum of 50 nM) of the compound of the present invention with a constant quantity (0.3 ml) of a homogenate of rat testicles (organ rich in cRABP). […] An incubation time for 2 hours is necessary for the establishment of equilibrium conditions.
Once equilibrium is reached, the cRABP-tritiated ligand complex is separated from the nonlinked ligand by filtration on an exclusion gel Sephadex G25 column (Bio-Rad econo columns, 0.5×20 cm): the complex is eluted (elution peak at 2.5 ml), while the nonlinked ligand is retained in total on the column. A total separation is thus effected between the linked and nonlinked product. The eluation is made directly in the scintillation tubes and the radioactivity is measured by counting.
On FIG. 1, there is represented, on the abscissa, the initial concentrations of the ligand being studied, and on the ordinate, the concentrations at equilibrium of the ligand-receptor complex.
The difference between curves a (total fixation) and c (nonspecific fixation) gives the curve of specific fixation, curve b. The analysis of this curve provides the dissociation constant at equilibrium, (Kd), which is the concentration of product necessary for 50% saturation of the soluble receptor. This constant is a measure of the affinity of the ligand for its receptor, Kd being inversely proportional to affinity, (the weaker Kd is, the greater is the affinity).

[2] = target: T1, cRABP (cellular Retinoic Acid-Binding Protein); experiment: Competition test of cold ligand against radioactive ligand for fixation on cRABP
Protocol: These competition tests are carried out in the following manner: a fixed amount of the radioactive ligand (corresponding essentially to the half-saturation of the fixed amount of receptor which will be employed), is mixed with increasing quantities of cold ligand (nonradioactive). The receptor is then added and there is determined the amount of radioactive ligand fixed at equilibrium (in % of initial fixation in the absence of cold ligand, for the amount of receptor considered).
Starting from the competition curves of FIGS. 2 to 7, there is determined in each case the IC50 (concentration of cold ligand reducing the attachment of 50% of the tritiated ligand). This IC50 value permits the calculation in each case of the dissociation constant at equilibrium (Kd) for the cold ligand.

T1 sequence (P62966 whole entry): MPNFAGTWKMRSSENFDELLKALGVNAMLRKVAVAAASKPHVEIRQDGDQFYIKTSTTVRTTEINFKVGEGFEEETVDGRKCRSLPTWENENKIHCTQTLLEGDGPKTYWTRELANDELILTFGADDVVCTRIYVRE

[3H]c1cc2c(cc1-c1cc3ccc(C(=O)O)cc3s1)C(C)(C)CCC2(C)C [Example 1, 2-(3-^3 H-5,6,7,8-tetrahydro-5,5,8,8-tetramethyl-2-naphthyl)-6-benzo [b] thiophene carboxylic acid]
nonspecific fixation (character) ([1]; in the concentration range employed (up to 50 nM)): linear and nonsaturable
nonspecific fixation (% of the total fixation) [1]: less than 10%
specific fixation (character) ([1]; saturation test, rat testicle homogenate): saturable and reversible
Kd ([1]; saturation test, rat testicle homogenate, 2 hours incubation, nonlinear regression (Clark equation), read-out: Kd (dissociation constant at equilibrium)): 0.0027 ± 0.0005 µM

CC1(C)CCC(C)(C)c2cc(-c3cc4ccc(C(=O)O)cc4s3)ccc21 [compound A, 2-(5,6,7,8-tetrahydro-5,5,8,8-tetramethyl-2-naphthyl)-6-benzo [b] thiophene carboxylic acid]
Kd [2]: 0.006 µM

C/C(=C\c1ccc(C(=O)O)cc1)c1ccc2c(c1)C(C)(C)CCC2(C)C [compound B]
Kd [2]: 0.016 µM
Kd ([2]; Kd of the cold ligand, radioactive ligand: tritiated retinoic acid, calculated from IC50 of competition curve): 0.02 µM

CC1=C(/C=C/C(C)=C/C=C/C(C)=C/C(=O)O)C(C)(C)CCC1 [retinoic acid]
nonspecific fixation (% of the total fixation) [1]: approximately 25%

Source: patent US4880941A, “Trittum labelled compound, its preparation and its use in the determination of the affinity of retinoids for their cellular receptor” (priority 1986, dated 1989)
